Measured values reported in patent US10836789B2, “Inhibitors of glucocorticoid receptor” (ORIC Pharmaceuticals, Inc., priority 2016, dated 2020).

How the values were obtained:
[1] = target: T1, GR (Homo sapiens, UniProt P04150); test: GR luciferase antagonist assay (CHO/GR/MMTV Luciferase cells); type: cell-based; details: 10 nM Dexamethasone final, 16-18 h
T1 construct: expressed in transfected cells; host or cells: CHO cells carrying GR and an MMTV-luciferase reporter
T1 sequence (P04150 1-777): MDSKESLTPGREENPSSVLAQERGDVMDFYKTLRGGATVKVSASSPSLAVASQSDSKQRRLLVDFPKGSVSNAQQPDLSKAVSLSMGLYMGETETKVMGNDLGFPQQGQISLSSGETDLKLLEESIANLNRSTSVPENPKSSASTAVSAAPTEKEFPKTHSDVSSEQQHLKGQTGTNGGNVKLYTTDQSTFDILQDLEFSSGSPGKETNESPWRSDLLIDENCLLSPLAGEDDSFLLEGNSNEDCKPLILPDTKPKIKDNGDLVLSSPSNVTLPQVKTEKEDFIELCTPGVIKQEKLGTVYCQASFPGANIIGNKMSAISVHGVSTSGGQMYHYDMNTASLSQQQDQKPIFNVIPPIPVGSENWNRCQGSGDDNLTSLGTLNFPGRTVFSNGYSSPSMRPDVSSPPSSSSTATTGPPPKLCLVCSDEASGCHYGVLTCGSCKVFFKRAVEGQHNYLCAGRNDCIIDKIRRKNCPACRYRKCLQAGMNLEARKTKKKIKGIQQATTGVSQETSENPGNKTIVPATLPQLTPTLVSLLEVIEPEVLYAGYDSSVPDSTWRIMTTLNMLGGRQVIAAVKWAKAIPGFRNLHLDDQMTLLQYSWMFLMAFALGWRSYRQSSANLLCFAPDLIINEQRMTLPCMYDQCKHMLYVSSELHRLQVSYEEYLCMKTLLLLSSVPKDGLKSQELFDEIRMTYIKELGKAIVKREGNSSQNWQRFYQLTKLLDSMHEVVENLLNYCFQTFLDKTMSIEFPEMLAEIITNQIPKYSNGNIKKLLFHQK
Experimental: Example A: […] GR Luciferase Assay Cell Line: CHO/GR/MMTV Luciferase Culture Media: DMEM (with phenol red)+10% FBS Assay Media: DMEM (without phenol red)+10% CSS A 1×10 cm plate of cells was split into 2×15 cm plates in Assay Media (CSS). After 4 days, the cells in the Assay Media were collected and counted. Antagonist Assay: 1.5×10^4 cells per well were plated in a 384-well white walled TC plate in 20 ul of Assay Media containing 12.5 nM Dexamethasone (final concentration=10 nM). The plates were covered with film to avoid evaporation and placed in a TC incubator. Media/drug dilutions were prepared in Assay Media in 96-well sterile plates. 100 ul of Assay Media was distributed in aliquots into 96-well plates with an 8-Channel pipette (20-200 ul). 0.5 ul of 1000× concentration of compounds were added to the plates with 8-Channel pipette (0.5-10 ul). The plates were shaken for 15 seconds to mix. The film was removed from the 384-well plates with assay cells. 5 ul of media/drug dilutions were added to appropriate wells. The plates were covered with film to avoid evaporation and placed in a TC incubator overnight. After 16-18 h in the incubator, the plates were removed and sat at room temperature for 10 minutes to equilibrate. The Reagent Dispenser was setup to distribute 25 ul aliquots of OneGlo Luciferase Reagent (at room temperature) to each well of the 384-well plate using standard cassette. After OneGlo was added to the plates, the plates were shaken briefly, then incubated in the dark at room temperature for about 3 minutes. The plates were read using a Tecan or Promega luminometer. The ability of the compounds disclosed herein to inhibit GR activity was quantified and the respective IC50 value was determined. Table 3 provides the cellular IC50 values of various substituted steroidal compounds disclosed herein.

[2] = system: AR; test: AR agonism assay in LNAR reporter cell line; type: cell-based; details: LNAR cells (overexpressed AR, 4XARE-Luc), 10% CSS, 18-24 hrs; Mifepristone maximum response set to 1
Experimental: Example B: In Vitro AR Agonism Assay
The AR agonism assay was done in the LNAR reporter cell line which has overexpressed AR and 4XARE-Luc genes. This cell line is sensitive to even minor partial AR agonism activity in hormone-deprived media (CSS). The assays were done in RPMI (without phenol red)+10% CSS using 6000 LNAR cells/well in 384-well plates and compounds were incubated with cells in […] incubator for 18-24 hrs. OneGlo reagent (25 uL/well) was added and plates were read with luminometer within 3 minutes.
To gauge the AR partial agonism activity, Mifepristone is included as a standard in the assay. AR agonism assay results are quantified by determining the ratio of the maximum response of individual compounds to the maximum response of Mifepristone (arbitrarily set to 1). Values of Table 4 are reported as Relative Maximum Response to Mifepristone. This general trend of AR agonism was shown for the class of compounds described herein.

| SMILES | IC50 [1] | Relative Maximum Response to Mifepristone [2] |
| --- | --- | --- |
| CC(C)N(C)c1ccc([C@H]2C[C@@]3(C)[C@@H](CC[C@@]3(O)C#CC(C)(C)C)[C@@H]3CCC4=CC(=O)CC[C@@H]4[C@H]32)cc1 [Compound 2, (8R,9S,10R,11S,13S,14S,17S)-17-(3,3-Dimethylbut-1-yn-1-yl)-17-hydroxy-11-(4-(isopropyl(methyl)amino)phenyl)-13-methyl-1,2,6,7,8,9,10,11,12,13,14,15,16,17-tetradecahydro-3H-cyclopenta[a]phenanthren-3-one] | ≤ 100 nM | A (A: ≤ 0.4) |
| COC(C)(C)C#C[C@]1(O)CC[C@H]2[C@@H]3CCC4=CC(=O)CC[C@@H]4[C@H]3[C@@H](c3ccc(N(C)C(C)C)cc3)C[C@@]21C [Compound 4, (8R,9S,10R,11S,13S,14S,17S)-17-Hydroxy-11-(4-(isopropyl(methyl)amino)phenyl)-17-(3-methoxy-3-methylbut-1-yn-1-yl)-13-methyl-1,2,6,7,8,9,10,11,12,13,14,15,16,17-tetradecahydro-3H-cyclopenta[a]phenanthren-3-one] | ≤ 100 nM | A (A: ≤ 0.4) |
| CCC(C)(C)C#C[C@]1(O)CC[C@H]2[C@@H]3CCC4=CC(=O)CC[C@@H]4[C@H]3[C@@H](c3ccc(N(C)C)cc3)C[C@@]21C [Compound 6, (8R,9S,10R,11S,13S,14S,17S)-11-(4-(Dimethylamino)phenyl)-17-(3,3-dimethylpent-1-yn-1-yl)-17-hydroxy-13-methyl-1,2,6,7,8,9,10,11,12,13,14,15,16,17-tetradecahydro-3H-cyclopenta[a]phenanthren-3-one] | ≤ 100 nM | A (A: ≤ 0.4) |
| CC(C)(C)C#C[C@]1(O)CC[C@H]2[C@@H]3CCC4=CC(=O)CC[C@@H]4[C@H]3[C@@H](c3ccc(N4CCOCC4)cc3)C[C@@]21C [Compound 7, (8R,9S,10R,11S,13S,14S,17S)-17-(3,3-Dimethylbut-1-yn-1-yl)-17-hydroxy-13-methyl-11-(4-morpholinophenyl)-1,2,6,7,8,9,10,11,12,13,14,15,16,17-tetradecahydro-3H-cyclopenta[a]phenanthren-3-one] | ≤ 100 nM | A (A: ≤ 0.4) |
| CC(C)Nc1ccc([C@H]2C[C@@]3(C)[C@@H](CC[C@@]3(O)C#CC(C)(C)C)[C@@H]3CCC4=CC(=O)CC[C@@H]4[C@H]32)cc1 [Compound 10, (8R,9S,10R,11S,13S,14S,17S)-17-(3,3-Dimethylbut-1-yn-1-yl)-17-hydroxy-11-(4-(isopropylamino)phenyl)-13-methyl-1,2,6,7,8,9,10,11,12,13,14,15,16,17-tetradecahydro-3H-cyclopenta[a]phenanthren-3-one] | ≤ 100 nM | A (A: ≤ 0.4) |
| CN(c1ccc([C@H]2C[C@@]3(C)[C@@H](CC[C@@]3(O)C#CC(C)(C)C)[C@@H]3CCC4=CC(=O)CC[C@@H]4[C@H]32)cc1)C(C)(C)C [Compound 11, (8R,9S,10R,11S,13S,14S,17S)-11-(4-(tert-Butyl(methyl)amino)phenyl)-17-(3,3-dimethylbut-1-yn-1-yl)-17-hydroxy-13-methyl-1,2,6,7,8,9,10,11,12,13,14,15,16,17-tetradecahydro-3H-cyclopenta[a]phenanthren-3-one] | ≤ 100 nM | A (A: ≤ 0.4) |
| CC(C)Nc1ccc([C@H]2C[C@@]3(C)[C@@H](CC[C@@]3(O)C#CC(C)(C)C)[C@@H]3CCC4=CC(=O)CC[C@@H]4[C@H]32)cc1F [Compound 14, (8R,9S,10R,11S,13S,14S,17S)-17-(3,3-dimethylbut-1-yn-1-yl)-11-(3-fluoro-4-(isopropylamino)phenyl)-17-hydroxy-13-methyl-1,2,6,7,8,9,10,11,12,13,14,15,16,17-tetradecahydro-3H-cyclopenta[a]phenanthren-3-one] | > 100 nM | A (A: ≤ 0.4) |
| COCC#C[C@]1(O)CC[C@H]2[C@@H]3CCC4=CC(=O)CC[C@]4(C)[C@H]3[C@@H](c3ccc(N(C)C)cc3)C[C@@]21C [Compound 17, (8S,9R,10R,11S,13S,14S,17S)-11-(4-(Dimethylamino)phenyl)-17-hydroxy-17-(3-methoxyprop-1-yn-1-yl)-10,13-dimethyl-1,2,6,7,8,9,10,11,12,13,14,15,16,17-tetradecahydro-3H-cyclopenta[a]phenanthren-3-one] | > 100 nM | A (A: ≤ 0.4) |
| CC(C)Nc1ccc([C@H]2C[C@@]3(C)[C@@H](CC[C@@]3(O)C#CC3CC3)[C@@H]3CCC4=CC(=O)CC[C@]4(C)[C@H]32)cc1 [Compound 18] | ≤ 100 nM | A (A: ≤ 0.4) |
| CC#C[C@]1(O)CC[C@H]2[C@@H]3CCC4=CC(=O)CC[C@]4(C)[C@H]3[C@@H](c3ccc(N(C)C(C)C)cc3)C[C@@]21C [Compound 19] | > 100 nM | A (A: ≤ 0.4) |
| CN1CCN(c2ccc([C@H]3C[C@@]4(C)[C@@H](CC[C@@]4(O)C#CC(C)(C)C)[C@@H]4CCC5=CC(=O)CC[C@@H]5[C@H]43)cc2)CC1 [Compound 20] | ≤ 100 nM | A (A: ≤ 0.4) |
| CC(C)N(C)c1ccc([C@H]2C[C@@]3(C)[C@@H](CC[C@@]3(O)C#CC3CC3)[C@@H]3CCC4=CC(=O)CC[C@]4(C)[C@H]32)cc1 [Compound 21, (8S,9R,10R,11S,13S,14S,17S)-17-(Cyclopropylethynyl)-17-hydroxy-11-(4-(isopropyl(methyl)amino)phenyl)-10,13-dimethyl-1,2,6,7,8,9,10,11,12,13,14,15,16,17-tetradecahydro-3H-cyclopenta[a]phenanthren-3-one] | ≤ 100 nM | A (A: ≤ 0.4) |
| CC(C)(C)C#C[C@]1(O)CC[C@H]2[C@@H]3CCC4=CC(=O)CC[C@@H]4[C@H]3[C@@H](c3ccc(N4CCS(=O)(=O)CC4)cc3)C[C@@]21C [Compound 22] | ≤ 100 nM | A (A: ≤ 0.4) |
| CC(C)(C)C#C[C@]1(O)CC[C@H]2[C@@H]3CCC4=CC(=O)CC[C@@H]4[C@H]3[C@@H](c3ccc(N4CCN(C(=O)OC(C)(C)C)CC4)cc3)C[C@@]21C [Compound 25] | ≤ 100 nM | A (A: ≤ 0.4) |
| CC#C[C@]1(O)CC[C@H]2[C@@H]3CCC4=CC(=O)CC[C@]4(C)[C@H]3[C@@H](c3ccc(N(C)C)c(F)c3)C[C@@]21C [Compound 32] | > 100 nM | A (A: ≤ 0.4) |
